Patent US9145415B2, “Nitrogen-containing heterocyclic compound or salt thereof” (FUJIFILM Corporation, priority 2012, dated 2015)

Experiments:
MV4-11 cells = experiment: Leukemia cell proliferation inhibition test (ATPlite), MV4-11; assay type: cell-based; conditions: Homo sapiens, MV4-11, 72 h, MV4-11, 72 hours culture, ATPlite; GI50 per method; read-out: MV4-11 cell proliferation inhibition effect
Method in brief: (§1)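 Proliferation inhibition is quantified from total cellular ATP, measured by luciferase luminescence, after cells grow with compound for 72 hours. The GI50 is the concentration giving half the signal of the 0.1% DMSO control, fitted to a sigmoid curve from duplicate points.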

Molm-13 cells = experiment: Leukemia cell proliferation inhibition test (ATPlite), Molm-13; assay type: cell-based; conditions: Homo sapiens, MOLM-13, 72 h, Molm-13, 72 hours culture, ATPlite; GI50 per method; read-out: MOLM13 cell proliferation inhibition effect
Method in brief: as §1

[1] = target: T1, human FLT3 protein (FLT3 (WT)) (Homo sapiens, UniProt P36888); experiment: FLT3 inhibition test (FLT3 enzyme inhibition, time-resolved fluorescence of substrate peptide phosphorylation); assay type: biochemical; conditions: GST-fused human FLT3 (564 to 993 aa), ATP 50 μM; read-out: FLT3 (WT) enzyme inhibition activity
T1 construct: human FLT3 protein (intracellular region, 564 to 993 aa); GST; purchased Carna Biosciences; host or cells: baculovirus expression system
T1 sequence (P36888 564-993): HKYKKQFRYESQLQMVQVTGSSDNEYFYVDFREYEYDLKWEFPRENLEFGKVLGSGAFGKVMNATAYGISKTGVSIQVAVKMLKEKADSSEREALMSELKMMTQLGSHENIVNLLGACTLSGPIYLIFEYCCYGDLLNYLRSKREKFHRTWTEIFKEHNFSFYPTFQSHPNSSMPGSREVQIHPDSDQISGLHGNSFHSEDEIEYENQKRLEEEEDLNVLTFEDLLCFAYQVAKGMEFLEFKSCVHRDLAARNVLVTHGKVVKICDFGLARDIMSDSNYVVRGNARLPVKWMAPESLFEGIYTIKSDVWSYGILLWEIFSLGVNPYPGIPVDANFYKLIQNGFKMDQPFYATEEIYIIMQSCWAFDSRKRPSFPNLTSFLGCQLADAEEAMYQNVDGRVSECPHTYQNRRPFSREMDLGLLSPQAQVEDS
Method in brief: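 Wild-type human FLT3 (1.2 μg) pre-incubated with compound 15 min at 25° C in 100 mM HEPES pH 7.5, 10 mM MgCl2, 25 mM NaCl, 1 mM DTT. Reaction started with substrate peptide and ATP (final 50 μM), run 30 min at 25° C; phosphorylation read by time-resolved fluorescence.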

Row | Structure (SMILES) | IC50 (MV4-11 cells) | IC50 (Molm-13 cells) | IC50 [1]
1 | CCCNc1nc(Nc2ccnc(OC)c2)ncc1C#C[C@H]1C[C@@H](NC(=O)[C@H](C)N(C)C(=O)/C=C/CN(C)C)C1 [Compound 14-6, (E)-4-(Dimethylamino)-N—((S)-1-(((1S,3R)-3-((2-((2-methoxypyridin-4-yl)amino)-4-(propylamino)pyrimidin-5-yl)ethynyl)cyclobutyl)amino)-1-oxopropan-2-yl)-N-methyl-2-butenamide] | < 10 nM | < 10 nM | < 10 nM
2 | COc1nc(Nc2ccc(C#N)cc2)ncc1C#C[C@@H]1CCC[C@H](NC(=O)[C@H](C)N(C)C(=O)/C=C/CN(C)C)C1 [Compound 15-1, (E)-N—((S)-1-(((1S,3R)-3-((2-((4-cyanophenyl)amino)-4-methoxypyrimidin-5-yl)ethynyl)cyclohexyl)amino)-1-oxopropan-2-yl)-4-(dimethylamino)-N-methyl-2-butenamide] | < 10 nM | < 10 nM | < 10 nM
3 | COc1nc(Nc2ccc(F)nc2)ncc1C#C[C@@H]1CCC[C@H](NC(=O)[C@H](C)N(C)C(=O)/C=C/CN(C)C)C1 [Compound 15-2] | < 10 nM | 10 to 100 nM | < 10 nM
4 | CNc1nc(Nc2ccc(F)nc2)ncc1C#C[C@@H]1CCC[C@H](NC(=O)[C@H](C)N(C)C(=O)/C=C/CN(C)C)C1 [Compound 15-3] | < 10 nM | < 10 nM | < 10 nM
5 | COc1nc(Nc2cccc(F)c2)ncc1C#C[C@@H]1CCC[C@H](NC(=O)[C@H](C)N(C)C(=O)/C=C/CN(C)C)C1 [Compound 15-4] | < 10 nM | < 10 nM | < 10 nM
6 | CNc1nc(Nc2ccc(C#N)cc2)ncc1C#C[C@@H]1CCC[C@H](NC(=O)[C@H](C)N(C)C(=O)/C=C/CN(C)C)C1 [Compound 15-5, (E)-N—((S)-1-(((1S,3R)-3-((2-((4-Cyanophenyl)amino)-4-(methylamino)pyrimidin-5-yl)ethynyl)cyclohexyl)amino)-1-oxopropan-2-yl)-4-(dimethylamino)-N-methyl-2-butenamide] | < 10 nM | < 10 nM | < 10 nM
7 | CNc1nc(Nc2cccc(F)c2)ncc1C#C[C@@H]1CCC[C@H](NC(=O)[C@H](C)N(C)C(=O)/C=C/CN(C)C)C1 [Compound 15-6] | < 10 nM | < 10 nM | < 10 nM
8 | C[C@@H](C(=O)N[C@H]1C[C@@H](C#Cc2cnc(Nc3cccc(F)c3)nc2NC2CC2)C1)N(C)C(=O)/C=C/CN(C)C [Compound 15-7] | < 10 nM | < 10 nM | < 10 nM
9 | CN(C)C/C=C/C(=O)N1CCC[C@H]1C(=O)N[C@H]1C[C@@H](C#Cc2cnc(Nc3cccc(F)c3)nc2NC2CC2)C1 [Compound 15-11] | < 10 nM | < 10 nM | < 10 nM
10 | CN(C)C/C=C/C(=O)N1CCC[C@H]1C(=O)N[C@H]1C[C@@H](C#Cc2cnc(Nc3ccc(C#N)cc3)nc2NC2CC2)C1 [Compound 15-12] | < 10 nM | < 10 nM | < 10 nM
11 | C[C@@H](C(=O)N[C@H]1C[C@@H](C#Cc2cnc(Nc3cccc(F)c3)nc2NCCCF)C1)N(C)C(=O)/C=C/CN(C)C [Compound 15-13, (E)-4-(Dimethylamino)-N—((S)-1-(((1S,3R)-3-((2-((3-fluorophenyl)amino)-4-((3-fluoropropyl)amino)pyrimidin-5-yl)ethynyl)cyclobutyl)amino)-1-oxopropan-2-yl)-N-methyl-2-butenamide] | < 10 nM | < 10 nM | < 10 nM
12 | C[C@@H](C(=O)N[C@H]1C[C@@H](C#Cc2cnc(Nc3ccc(C#N)cc3)nc2NCCCF)C1)N(C)C(=O)/C=C/CN(C)C [Compound 15-14, (E)-N—((S)-1-(((1S,3R)-3-((2-((4-Cyanophenyl)amino)-4-((3-fluoropropyl)amino)pyrimidin-5-yl)ethynyl)cyclobutyl)amino)-1-oxopropan-2-yl)-4-(dimethylamino)-N-methyl-2-butenamide] | < 10 nM | < 10 nM | < 10 nM
13 | COCCCNc1nc(Nc2cccc(F)c2)ncc1C#C[C@H]1C[C@@H](NC(=O)[C@H](C)N(C)C(=O)/C=C/CN(C)C)C1 [Compound 15-15, (E)-4-(Dimethylamino)-N—((S)-1-(((1S,3R)-3-((2-((3-fluorophenyl)amino)-4-((3-methoxypropyl)amino)pyrimidin-5-yl)ethynyl)cyclobutyl)amino)-1-oxopropan-2-yl)-N-methyl-2-butenamide] | < 10 nM | < 10 nM | < 10 nM
14 | COCCCNc1nc(Nc2ccc(C#N)cc2)ncc1C#C[C@H]1C[C@@H](NC(=O)[C@H](C)N(C)C(=O)/C=C/CN(C)C)C1 [Compound 15-16, (E)-N—((S)-1-(((1S,3R)-3-((2-((4-Cyanophenyl)amino)-4-((3-methoxypropyl)amino)pyrimidin-5-yl)ethynyl)cyclobutyl)amino)-1-oxopropan-2-yl)-4-(dimethylamino)-N-methyl-2-butenamide] | < 10 nM | < 10 nM | < 10 nM

The remaining lines, values ahead:

Row | IC50 (MV4-11 cells) | IC50 (Molm-13 cells) | IC50 [1] | Structure (SMILES)
15 | 10 to 100 nM | 100 to 1000 nM | < 10 nM | CCCNc1nc(Nc2ccc(C(N)=O)cc2)ncc1-c1cccc(CCNC(=O)CNC(=O)/C=C/CN(C)C)c1 [Compound 16-1, (E)-4-((5-(3-(2-(2-(4-(dimethylamino)-2-butenamido)actamido)ethyl)phenyl)-4-(propylamino)pyrimidin-2-yl)amino)benzamide]
16 | 10 to 100 nM | 100 to 1000 nM | < 10 nM | CCCNc1nc(Nc2ccc(C(N)=O)cc2)ncc1-c1ccc(CNC(=O)CNC(=O)/C=C/CN(C)C)cc1 [Compound 16-2]
17 | 100 to 1000 nM | 100 to 1000 nM | < 10 nM | CCCNc1nc(Nc2ccc(C(N)=O)cc2)ncc1-c1ccc(CCNC(=O)CNC(=O)/C=C/CN(C)C)cc1 [Compound 16-3]
18 | < 10 nM | < 10 nM | < 10 nM | CCCNc1nc(Nc2cccc(F)c2)ncc1-c1cc(CCNC(=O)[C@H](C)N(C)C(=O)/C=C/CN(C)C)no1 [Compound 17-1, (S,E)-4-(dimethylamino)-N-(1-((2-(5-(2-((3-fluorophenyl)amino)-4-(propylamino)pyrimidin-5-yl)isoxazol-3-yl)ethyl)amino)-1-oxopropan-2-yl)-N-methyl-2-butenamide]
19 | < 10 nM | < 10 nM | < 10 nM | CCCNc1nc(Nc2cccc(F)c2)ncc1-c1cn(CCNC(=O)[C@H](C)N(C)C(=O)/C=C/CN(C)C)nn1 [Compound 17-2, (S,E)-4-(dimethylamino)-N-(1-((2-(4-(2-((3-fluorophenyl)amino)-4-(propylamino)pyrimidin-5-yl)-1H-1,2,3-triazol-1-yl)ethyl)amino)-1-oxopropan-2-yl)-N-methyl-2-butenamide]
20 | 10 to 100 nM | 10 to 100 nM | < 10 nM | CCCNc1nc(Nc2cccc(F)c2)ncc1-c1cc(CCNC(=O)[C@H](C)N(C)C(=O)/C=C/CN(C)C)on1 [Compound 17-3, (S,E)-4-(dimethylamino)-N-(1-((2-(3-(2-((3-fluorophenyl)amino)-4-(propylamino)pyrimidin-5-yl)isoxazol-5-yl)ethyl)amino)-1-oxopropan-2-yl)-N-methyl-2-butenamide]
